Source: ChEMBL document CHEMBL5532638, “Current development of 1,2,3-triazole derived potential antimalarial scaffolds: Structure- activity relationship (SAR) and bioactive compounds” (Eur J Med Chem, 2023)
pIC50: −log10 of the molar value. ≈ marks a conversion by molar mass, not a printed value.

Experiments:
Plasmodium falciparum [1] = assay: Antiplasmodial activity against CQ-resistant Plasmodium falciparum FCR-3/Gambia subline F-86 infected in erythrocytes assessed as parasite growth inhibition incubated for 24 hrs by [3H]-hypoxanthine incorporation assay; assay type: functional, organism-based; settings: FCR-3/Gambia subline F-86, Erythrocyte
Plasmodium falciparum [2] = assay: Antiplasmodial activity against CQ-sensitive Plasmodium falciparum 3D7 assessed as parasite growth inhibition; assay type: functional, organism-based
Plasmodium falciparum [3] = assay: Antiplasmodial activity against Plasmodium falciparum infected in O+ RBCs assessed as parasite growth inhibition incubated for 36 to 40 hrs by JSB staining based analysis; assay type: functional, organism-based, RBC; settings: for pIC50: Plasmodium falciparum, Erythrocyte, read-out: IC50; for IC50: rbc
Plasmodium falciparum [4] = assay: Antiplasmodial activity against CQ-resistant Plasmodium falciparum 2/K-1 infected in human O+ red blood cells assessed as parasite growth inhibition incubated for 72 hrs by Malstat assay; assay type: functional, organism-based, Red blood cell; settings: 2/K-1, Erythrocyte
Plasmodium falciparum [5] = assay: Antimalarial activity against Plasmodium falciparum 3D7 assessed as parasite growth inhibition incubated for 42 hrs by [3H]-hypoxanthine incorporation assay; assay type: functional, organism-based
[6] = Cytotoxicity against human PC-3 cells incubated for 72 hrs by MTT assay; assay type: toxicity, cell-based
Plasmodium falciparum [7] = assay: Antiplasmodial activity against CQ-sensitive Plasmodium falciparum F32 Tanzania assessed as parasite growth inhibition incubated for 48 hrs; assay type: functional, organism-based, RBC; settings: Erythrocyte
Plasmodium falciparum [8] = assay: Antimalarial activity against CQ-resistant Plasmodium falciparum RKL-9 field isolate at asexual stage assessed as parasite growth inhibition incubated for 22 to 36 hrs by SMI assay; assay type: functional, organism-based
Plasmodium falciparum [9] = assay: Antiplasmodial activity against CQ-sensitive Plasmodium falciparum 3D7 at trophozoite stage infected in human O+ RBCs assessed as parasite growth inhibition by SYBR Green I staining based analysis; assay type: functional, organism-based, RBC; settings: 3D7, Erythrocyte
Plasmodium falciparum [10] = assay: Antiplasmodial activity against CQ-resistant Plasmodium falciparum RKL-9 at trophozoite stage infected in human O+ RBCs assessed as parasite growth inhibition by SYBR Green I staining based analysis; assay type: functional, organism-based, RBC; settings: RKL-9, Erythrocyte
Plasmodium falciparum [11] = assay: Antiplasmodial activity against CQ-resistant Plasmodium falciparum K1 assessed as parasite growth inhibition; assay type: functional, organism-based
[12] = Cytotoxicity against African green monkey Vero cells; assay type: toxicity, cell-based; settings: chlorocebus sabaeus
Plasmodium falciparum [13] = assay: Antiplasmodial activity against Plasmodium falciparum 3D7 assessed as parasite growth inhibition incubated for 24 hrs by [3H]-hypoxanthine incorporation assay; assay type: functional, organism-based
[14] = Cytotoxicity against human Huh-7 cells incubated for 48 hrs by MTT assay; assay type: toxicity, cell-based
Falcipain 2 = biological target: T1, Falcipain 2 (Plasmodium falciparum, UniProt Q9N6S8); assay: Inhibition of recombinant Plasmodium falciparum FP2
T1 sequence (Q9N6S8 whole entry): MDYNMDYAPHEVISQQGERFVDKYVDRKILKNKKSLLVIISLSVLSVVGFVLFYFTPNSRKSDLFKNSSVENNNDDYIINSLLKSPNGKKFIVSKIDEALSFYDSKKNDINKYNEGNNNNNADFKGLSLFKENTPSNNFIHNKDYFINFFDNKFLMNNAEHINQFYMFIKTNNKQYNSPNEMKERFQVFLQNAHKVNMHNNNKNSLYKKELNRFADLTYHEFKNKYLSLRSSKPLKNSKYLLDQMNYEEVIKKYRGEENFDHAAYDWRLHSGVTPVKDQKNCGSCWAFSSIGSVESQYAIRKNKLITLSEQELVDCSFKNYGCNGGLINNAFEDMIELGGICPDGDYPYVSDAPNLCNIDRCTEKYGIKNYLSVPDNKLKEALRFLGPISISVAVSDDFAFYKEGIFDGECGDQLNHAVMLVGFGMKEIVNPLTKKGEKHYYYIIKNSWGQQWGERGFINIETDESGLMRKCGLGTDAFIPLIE

Plasmodium falciparum [15] = assay: Antiplasmodial activity against Plasmodium falciparum 3D7 assessed as parasite growth inhibition; assay type: functional, organism-based
[16] = Selectivity index, ratio of CC50 for human erythrocytes to IC50 for Plasmodium falciparum Dd2; assay type: toxicity; settings: read-out: Ratio CC50/IC50
Plasmodium falciparum [17] = assay: Antiplasmodial activity against CQ-sensitive Plasmodium falciparum 3D7 infected in red blood cells assessed as parasite growth inhibition incubated for 72 hrs by SYBR Green I staining based analysis; assay type: functional, organism-based, Red blood cell; settings: 3D7, Erythrocyte
Plasmodium falciparum [18] = assay: Antiplasmodial activity against CQ-resistant Plasmodium falciparum W2 infected in red blood cells assessed as parasite growth inhibition incubated for 72 hrs by SYBR Green I staining based analysis; assay type: functional, organism-based, Red blood cell; settings: W2, Erythrocyte
Plasmepsin II = Plasmepsin II (Plasmodium falciparum, UniProt P46925); assay: Inhibition of Plasmodium falciparum Plm-II using DABCYL-Glu-Arg-Nle-Phe-Leu-Ser-Phe-Pro-EDANS as substrate preincubated for 30 mins followed by substrate addition measured after 8 to 15 mins by FRET assay
Plasmodium falciparum [19] = assay: Antiplasmodial activity against Plasmodium falciparum K1 infected in O+ RBCs assessed as parasite growth inhibition incubated for 36 to 40 hrs by Geimsa staining based analysis; assay type: functional, organism-based, RBC; settings: K1, Erythrocyte

Chain of Plasmepsin II (P46925 whole entry): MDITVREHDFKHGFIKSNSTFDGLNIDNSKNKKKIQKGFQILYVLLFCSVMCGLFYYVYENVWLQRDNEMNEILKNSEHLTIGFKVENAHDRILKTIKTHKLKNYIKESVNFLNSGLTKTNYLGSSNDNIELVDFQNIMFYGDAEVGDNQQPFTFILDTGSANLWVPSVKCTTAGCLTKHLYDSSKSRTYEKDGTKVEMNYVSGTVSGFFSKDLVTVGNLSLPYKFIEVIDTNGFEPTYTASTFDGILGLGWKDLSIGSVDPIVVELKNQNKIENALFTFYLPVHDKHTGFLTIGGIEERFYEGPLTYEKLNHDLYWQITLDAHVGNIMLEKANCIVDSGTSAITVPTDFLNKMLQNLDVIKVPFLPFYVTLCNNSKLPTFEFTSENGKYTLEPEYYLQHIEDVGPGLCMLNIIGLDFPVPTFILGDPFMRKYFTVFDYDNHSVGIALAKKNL

C[C@@H]1[C@@H](n2cc(-c3cccc(Cl)c3)nn2)O[C@@H]2O[C@]3(C)CC[C@H]4[C@H](C)CC[C@@H]1[C@@]24OO3
pIC50 (Plasmodium falciparum [1]): 8.60

C[C@H]1[C@H](n2nncc2-c2cccc(Cl)c2)O[C@@H]2O[C@]3(C)CC[C@H]4[C@H](C)CC[C@@H]1[C@@]24OO3
pIC50 (Plasmodium falciparum [1]): 8.38

O=C(Cn1cc(-c2ccccc2)nn1)c1ccccc1
pIC50 (Plasmodium falciparum [2]): 5.89

O=C(Cn1cc(CSc2ccc(Br)cc2)nn1)OCc1ccc(Cl)cc1
pIC50 (Plasmodium falciparum [3]): 6.69

O=C(Cn1cc(CSc2ccc(Cl)cc2)nn1)OCc1ccc(Cl)cc1
pIC50 (Plasmodium falciparum [3]): 6.68

CCc1nnc2ccc(S(=O)(=O)N(Cc3cccc(F)c3)c3ccc(OC)cc3)cn12
pIC50 (Plasmodium falciparum [4]): 5.30

COc1ccc2cc3[n+](cc2c1OCc1cn(-c2ccc(S(=O)(=O)N4CCOCC4)cc2)nn1)CCc1cc2c(cc1-3)OCO2.[Cl-]
IC50 (Plasmodium falciparum [5]): 0.1 µg/mL | CC50 at 72 h [6]: > 200 µg/mL

COc1ccc2cc3[n+](cc2c1OCc1cn(-c2ccc(S(=O)(=O)N4CCN(C)CC4)cc2)nn1)CCc1cc2c(cc1-3)OCO2.[Cl-]
IC50 (Plasmodium falciparum [5]): 0.1 µg/mL | CC50 at 72 h [6]: > 200 µg/mL

COc1ccc2cc3[n+](cc2c1OCc1cn(-c2ccc(S(=O)(=O)N4CCCCC4)cc2)nn1)CCc1cc2c(cc1-3)OCO2.[Cl-]
IC50 (Plasmodium falciparum [5]): 0.1 µg/mL | CC50 at 72 h [6]: > 200 µg/mL

O=C1C=C(OCc2cn(-c3ccccc3)nn2)C(=O)c2ccccc21
pIC50 (Plasmodium falciparum [7]): 5.92

COc1ccc(-n2cc(COC3=CC(=O)c4ccccc4C3=O)nn2)cc1F
pIC50 (Plasmodium falciparum [7]): 6.10

O=C(Cn1cc(COc2ccc(Cl)cc2)nn1)NCCNc1ccnc2cc(Cl)ccc12
pIC50 (Plasmodium falciparum [8]): > 7.00

O=C(Cn1cc(COc2ccccc2)nn1)NCCCNc1ccnc2cc(Cl)ccc12
pIC50 (Plasmodium falciparum [8]): 7.12

COc1ccccc1C(=O)/C=C/c1cn(Cc2cn(-c3ccnc4cc(Cl)ccc34)nn2)c2ccccc12
pIC50 (Plasmodium falciparum [9]): 5.62 | pIC50 (Plasmodium falciparum [10]): 5.46

Cc1ccccc1C(=O)/C=C/c1cn(Cc2cn(-c3ccnc4cc(Cl)ccc34)nn2)c2ccccc12
pIC50 (Plasmodium falciparum [9]): 5.74 | pIC50 (Plasmodium falciparum [10]): 5.57

O=C(Cn1cc(CSc2ccc(Br)cc2)nn1)OCc1ccc([N+](=O)[O-])cc1
pIC50 (Plasmodium falciparum [3]): 6.74

Cc1ccccc1COc1ccc(-n2cc(COc3cc(=O)oc4ccccc34)nn2)cc1
IC50 (Plasmodium falciparum [3]): 0.53 microg/cm3

COc1cc(/C=C/C(=O)c2ccc(Cl)cc2)ccc1OCc1cn(-c2ccnc3cc(Cl)ccc23)nn1
pIC50 (Plasmodium falciparum [11]): 5.50 | CC50 [12]: 46200 nM

O=c1ccc2ccc(OCc3cn(-c4ccc(OCc5ccc(F)cc5)cc4)nn3)cc2o1
IC50 (Plasmodium falciparum [3]): 0.49 microg/cm3

Cc1ccc(OCc2cn(-c3ccc(S(N)(=O)=O)cc3)nn2)cc1
IC50 (Plasmodium falciparum [13]): 6.2 µg/mL (≈ 18 µM) | CC50 at 48 h [14]: 7.5 µg/mL (≈ 21.8 µM)

COc1ccc2cc3[n+](cc2c1OCc1cn(-c2ccc(S(=O)(=O)N4CCN(c5ccccn5)CC4)cc2)nn1)CCc1cc2c(cc1-3)OCO2.[Cl-]
IC50 (Plasmodium falciparum [5]): 0.1 µg/mL | CC50 at 72 h [6]: > 200 µg/mL

O=c1ccc2ccc(OCc3cn(-c4ccc(OCc5ccc(Br)cc5)cc4)nn3)cc2o1
IC50 (Plasmodium falciparum [3]): 0.54 microg/cm3

O=[N+]([O-])c1ccc(-n2cc(COc3cccc4nc(Cl)ccc34)nn2)cc1
pIC50 (Falcipain 2): 4.79 | pIC50 (Plasmodium falciparum [15]): 4.30

O=[N+]([O-])c1ccc(Cn2cc(CO)nn2)cc1
selectivity ratio [16]: 161

Cc1ccc(COc2ccc(-n3cc(COc4ccc5ccc(=O)oc5c4)nn3)cc2)cc1
IC50 (Plasmodium falciparum [3]): 0.38 microg/cm3

OB1OCc2cc(OCc3cn(CCCNc4ccnc5cc(Cl)ccc45)nn3)ccc21
pIC50 (Plasmodium falciparum [17]): 5.38 | pIC50 (Plasmodium falciparum [18]): 5.41

Cc1ccc(COC(=O)Cn2cc(CSc3ccc(C)cc3)nn2)cc1
pIC50 (Plasmodium falciparum [3]): 6.69

O=C(Cn1cc(CSc2ccc3ccccc3c2)nn1)OCc1ccc([N+](=O)[O-])cc1
pIC50 (Plasmodium falciparum [3]): 6.68

C[C@H]1[C@@H](n2cc(-c3cccc(Cl)c3)nn2)O[C@@H]2O[C@]3(C)CC[C@H]4[C@H](C)CC[C@@H]1[C@@]24OO3
pIC50 (Plasmodium falciparum [1]): 8.43

CCCCCc1ccc(-n2nnc(CCN(CC)CC)c2Cc2ccc(-c3ccc(OC)cc3)cc2)cc1
pIC50 (Plasmepsin II): 6.22

O=C(Cn1cc(CSc2ccc(Cl)cc2)nn1)OCc1ccccc1
pIC50 (Plasmodium falciparum [3]): 6.68

O=S(=O)(c1ccc(-n2cc(COc3ccc(I)cc3)nn2)cc1)N1CCN(c2ccccc2)CC1
IC50 (Plasmodium falciparum [13]): 12.9 µg/mL (≈ 21.4 µM)

O=C(Cn1cc(Oc2ccc(Cl)cc2)nn1)NCCNc1ccnc2cc(Cl)ccc12
pIC50 (Plasmodium falciparum [8]): 8.07

COc1ccc2cc3[n+](cc2c1OCc1cn(-c2ccc(S(=O)(=O)N4CCN(S(=O)(=O)c5ccc(-n6cc(COc7c(OC)ccc8cc9[n+](cc78)CCc7cc8c(cc7-9)OCO8)nn6)cc5)CC4)cc2)nn1)CCc1cc2c(cc1-3)OCO2.[Cl-].[Cl-]
IC50 (Plasmodium falciparum [5]): 0.1 µg/mL | CC50 at 72 h [6]: > 200 µg/mL

CCCCCc1ccc(-n2nnc(CCN3CCCC3)c2Cc2ccc(-c3ccc(OC)cc3)cc2)cc1
pIC50 (Plasmepsin II): 6.22

C[C@H](Cn1cc(C(C)(C)O)nn1)C1CCC2[C@@H](O)CCC[C@]12C (stereo partly specified)
pIC50 (Plasmodium falciparum [2]): 7.70

ClCCCCn1cc(-c2ccccc2)nn1
pIC50 (Plasmodium falciparum [2]): 5.48

O=c1n(Cc2cccc(Cl)c2)nc2c(S(=O)(=O)N3CCCCC3)cccn12
pIC50 (Plasmodium falciparum [4]): 5.65

Cc1ccc(COC(=O)Cn2cc(CSc3ccc(Br)cc3)nn2)cc1
pIC50 (Plasmodium falciparum [3]): 6.75

Cc1cc(C)nc(NS(=O)(=O)c2ccc(-n3cc(COc4ccc(Cl)cc4Cl)nn3)cc2)n1
IC50 (Plasmodium falciparum [13]): 16.7 µg/mL (≈ 33 µM)

CCCCCc1ccc(-n2nnc(CCN3CCN(C)CC3)c2Cc2ccc(-c3ccc(OC)cc3)cc2)cc1
pIC50 (Plasmepsin II): 5.74

C=C[C@H]1CN2CC[C@H]1C[C@@H]2[C@@H](c1ccnc2ccc(OC)cc12)n1cc(CCCCCC)nn1
pIC50 (Plasmodium falciparum [19]): 6.55

C=C[C@H]1CN2CC[C@H]1C[C@@H]2[C@@H](c1ccnc2ccc(OC)cc12)n1cc(CCCCCCCCCCCCCC)nn1
pIC50 (Plasmodium falciparum [19]): 6.55

C=C[C@H]1CN2CC[C@H]1C[C@@H]2[C@@H](c1ccnc2ccc(OC)cc12)n1cc(C[C@H](N)C(=O)O)nn1
pIC50 (Plasmodium falciparum [19]): 6.60

C=C[C@H]1CN2CC[C@H]1C[C@@H]2[C@@H](c1ccnc2ccc(OC)cc12)n1cc(CN2CCCC2C(=O)OCC)nn1 (stereo partly specified)
pIC50 (Plasmodium falciparum [19]): 6.48
